Measured values as given in US20240425519A1, “NOVEL SPIROCYCLIC COMPOUNDS AS KLHDC2 LIGANDS” (University of Washington, priority 2021, published 2024).
pIC50: −log10 of the molar value.

These molecules were tested against KLHDC2 (Homo sapiens (Human), UniProt Q9Y2U9) (assay: AlphaScreen competition assay for ligand binding to KLHDC2 (GST-KLHDC2 vs biotinylated 12 aa SelK degron peptide)). Conditions: formula (II) compounds; 0.12 nM GST-KLHDC2, 1.7 nM biotinylated 12 aa SelK peptide; triplicate; read-out: KLHDC2 binding activities IC50.
Sequence of KLHDC2 (Q9Y2U9 whole entry): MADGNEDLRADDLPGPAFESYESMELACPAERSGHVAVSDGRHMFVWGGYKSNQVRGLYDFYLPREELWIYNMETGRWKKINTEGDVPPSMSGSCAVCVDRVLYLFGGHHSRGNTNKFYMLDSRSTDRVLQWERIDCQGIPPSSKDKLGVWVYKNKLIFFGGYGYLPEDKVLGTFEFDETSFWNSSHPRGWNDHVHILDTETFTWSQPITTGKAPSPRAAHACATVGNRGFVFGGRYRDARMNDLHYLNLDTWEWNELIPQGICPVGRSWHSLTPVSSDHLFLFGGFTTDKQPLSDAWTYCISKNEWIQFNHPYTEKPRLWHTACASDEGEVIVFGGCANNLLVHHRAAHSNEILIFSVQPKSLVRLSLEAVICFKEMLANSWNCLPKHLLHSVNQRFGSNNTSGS
From the text: The following is a description of an assay for evaluating ligand binding to KLHDC2.
Amplified Luminescence Proximity Homogenous Assay (AlphaScreen) was used to monitor protein-protein interaction of two tagged components that are immobilized on beads. One component was GST-KLHDC2 (E3) and the other one was biotinylated-SelK peptide with a length of 12 amino acids (Substrate peptide). When the two components bind, they bring the Alpha beads in close proximity to each other that results in a luminescent signal.
AlphaScreen assays for determining and measuring protein-protein interactions were performed using EnSpire reader (PerkinElmer). GST-tagged KLHDC2 was attached to anti-GST AlphaScreen acceptor beads. Synthetic biotinylated 12 aa SelK degron peptide (Bio-Synthesis, Inc.) was immobilized to streptavidin-coated AlphaScreen donor beads. The donor and acceptor beads were brought into proximity by the interactions between the SelK peptide and KLHDC2. Excitation of the donor beads by a laser beam of 680 nm promotes the formation of singlet oxygen. When an acceptor bead is in close proximity, the singlet oxygen reacts with thioxene derivatives in the acceptor beads and causes the emission of 520-620 nm photons, which are detected as the binding signal. If the beads are not in close proximity to each other, the oxygen will return to its ground state and the acceptor beads will not emit light. Competition assays were performed in the presence of representative binding compounds, which were titrated at various concentrations.
The experiments were conducted with 0.12 nM of GST-KLHDC2 and 1.7 nM biotinylated 12 aa SelK peptide in the presence of 5 μg/ml donor and acceptor beads in a buffer of 25 mM HEPES, pH 7.5, 100 mM NaCl, 1 mM TCEP, 0.1% Tween-20, and 0.05 mg/ml Bovine Serum Albumin. The concentrations of the compounds used in competition assays ranged from 0.1 nM to 25 mM. The experiments were done in triplicate. IC50 values were determined using non-linear curve fitting of the dose response curves generated with Prism 4 (GraphPad).

Compound	pIC50
CN1CCN(C(=O)C2CC2c2ccccc2)CC12CCC(=O)N(CC(=O)O)CC2 (stereo not shown) [AC1032, 2-(1-methyl-10-oxo-4-(2-phenylcyclopropane-1-carbonyl)-1,4,9-triaza-spiro[5.6]dodecan-9-yl)-acetic acid]	4.49
CC(Cc1ccccc1)C(=O)N1CCN(C)C2(CCC(=O)N(CC(=O)O)CC2)C1 (stereo not shown) [AC1033, 2-(1-methyl-4-(2-methyl-3-phenylpropanoyl)-10-oxo-1,4,9-triazaspiro[5.6]-dodecan-9-yl)acetic acid]	4.25
CN1CCN(C(=O)C(C)(C)Oc2ccccc2)CC12CCC(=O)N(CC(=O)O)CC2 (stereo not shown) [AC1046, 2-(1-methyl-4-(2-methyl-2-phenoxypropanoyl)-10-oxo-1,4,9-triazaspiro[5.6]-dodecan-9-yl)acetic acid]	3.69
CN1CCN(C(=O)[C@H]2C[C@@H](NC(=O)OC(C)(C)C)C2)CC12CCC(=O)N(CC(=O)O)CC2 (stereo partly drawn) [AC1047, 2-(4-((1,3-trans)-3-((tert-butoxycarbonyl)amino)-cyclobutane-1-carbonyl)-1-methyl-10-oxo-1,4,9-triazaspiro[5.6]dodecan-9-yl)acetic acid]	3.31
CN1CCN(C(=O)NCc2ccccc2)CC12CCC(=O)N(CC(=O)O)CC2 (stereo not shown) [AC1051, 2-(4-(benzylcarbamoyl)-1-methyl-10-oxo-1,4,9-triazaspiro[5.6]dodecan-9-yl)acetic acid]	4.34
COC(C)(C(=O)N1CCN(C)C2(CCC(=O)N(CC(=O)O)CC2)C1)c1ccccc1 (stereo not shown) [AC1063, 2-(4-(2-methoxy-2-phen-ylpropanoyl)-1-methyl-10-oxo-1,4,9-triazaspiro-[5.6]dodecan-9-yl)acetic acid]	3.88
CN1CCN(C(=O)c2cnn(-c3ccccc3)c2)CC12CCC(=O)N(CC(=O)O)CC2 (stereo not shown) [AC1064, 2-(1-methyl-10-oxo-4-(1-phenyl-1H-pyrazole-4-carbonyl)-1,4,9-triaza-spiro[5.6]dodecan-9-yl)-acetic acid]	3.83
CN1CCN(C(=O)[C@@H]2CCN2C(=O)OC(C)(C)C)CC12CCC(=O)N(CC(=O)O)CC2 (stereo partly drawn) [AC1065, 2-(4-((S)-1-(tert-butoxy-carbonyl)azetidine-2-carbonyl)-1-methyl-10-oxo-1,4,9-triazaspiro[5.6]-dodecan-9-yl)acetic acid]	3.30
CN1CCN(C(=O)C2CC(=O)N(Cc3ccccc3)C2)CC12CCC(=O)N(CC(=O)O)CC2 (stereo not shown) [AC1066, 2-(4-(1-benzyl-5-oxo-pyrrolidine-3-carbonyl)-1-methyl-10-oxo-1,4,9-triazaspiro[5.6]dodecan-9-yl)acetic acid]	4.18
CN1CCN(C(=O)C2CN(Cc3ccccn3)C2)CC12CCC(=O)N(CC(=O)O)CC2 (stereo not shown) [AC1069, 2-(1-methyl-10-oxo-4-(1-(pyridin-2-ylmethyl)azeti-dine-3-carbonyl)-1,4,9-triazaspiro[5.6]dodecan-9-yl)acetic acid]	5.34

Continued, values first:

pIC50	Compound
3.53	CN1CCN(C(=O)C2CC(F)(F)C2)CC12CCC(=O)N(CC(=O)O)CC2 (stereo not shown) [AC1034, 2-(4-(3,3-difluorocyclo-butane-1-carbonyl)-1-methyl-10-oxo-1,4,9-triazaspiro[5.6]dodecan-9-yl)acetic acid]
3.46	CN1CCN(C(=O)C2(c3ccc(F)cc3)CC2)CC12CCC(=O)N(CC(=O)O)CC2 (stereo not shown) [AC1045, 2-(4-(1-(4-fluorophenyl)-cyclopropane-1-carbon-yl)-1-methyl-10-oxo-1,4,9-triazaspiro[5.6]-dodecan-9-yl)acetic acid]
3.94	CN1CCN(C(=O)C2(O)CCCC2)CC12CCC(=O)N(CC(=O)O)CC2 (stereo not shown) [AC1048, 2-(4-(1-hydroxycyclopen-tane-1-carbonyl)-1-meth-yl-10-oxo-1,4,9-triaza-spiro[5.6]dodecan-9-yl)-acetic acid]
4.04	CN1CCN(C(=O)NC2CCC2)CC12CCC(=O)N(CC(=O)O)CC2 (stereo not shown) [AC1049, 2-(4-(cyclobutylcarbam-oyl)-1-methyl-10-oxo-1,4,9-triazaspiro[5.6]-dodecan-9-yl)acetic acid]
4.47	CN1CCN(C(=O)Nc2ccccc2)CC12CCC(=O)N(CC(=O)O)CC2 (stereo not shown) [AC1050, 2-(1-methyl-10-oxo-4-(phenylcarbamoyl)-1,4,9-triazaspiro[5.6]dodecan-9-yl)acetic acid]
4.00	CN1CCN(C(=O)C2CC2)CC12CCC(=O)N(CC(=O)O)CC2 (stereo not shown) [AC1052, 2-(4-(cyclopropanecar-bonyl)-1-methyl-10-oxo-1,4,9-triazaspiro[5.6]-dodecan-9-yl)acetic acid]
4.70	CC(C(=O)N1CCN(C)C2(CCC(=O)N(CC(=O)O)CC2)C1)c1ccc(O)cc1 (stereo not shown) [AC1062, 2-(4-(2-(4-hydroxyphen-yl)propanoyl)-1-methyl-10-oxo-1,4,9-triazaspiro-[5.6]dodecan-9-yl)acetic acid]
3.72	CC(=O)N1CCC(C(=O)N2CCN(C)C3(CCC(=O)N(CC(=O)O)CC3)C2)CC1 (stereo not shown) [AC1068, 2-(4-(1-acetylpiperidine-4-carbonyl)-1-methyl-10-oxo-1,4,9-triazaspiro-[5.6]dodecan-9-yl)acetic acid]
4.34	CN1CCN(C(=O)[C@H]2CCCN2C(=O)c2ccccc2)CC12CCC(=O)N(CC(=O)O)CC2 (stereo partly drawn) [AC1071, 2-(4-(benzoyl-D-prolyl)-1-methyl-10-oxo-1,4,9-triazaspiro[5.6]dodecan-9-yl)acetic acid]
4.90	CC(=O)N1CCC[C@@H]1C(=O)N1CCN(C)C2(CCC(=O)N(CC(=O)O)CC2)C1 (stereo partly drawn) [AC1072, 2-(4-(acetyl-D-prolyl)-1-methyl-10-oxo-1,4,9-triazaspiro[5.6]dodecan-9-yl)acetic acid]

Same assay, conditions: formula (III) compounds; 0.12 nM GST-KLHDC2, 1.7 nM biotinylated 12 aa SelK peptide; triplicate; read-out: KLHDC2 binding activities IC50

pIC50	Compound
3.35	CC(=O)N1CCc2nc(N3CCN(C)C4(CCC(=O)N(CC(=O)O)CC4)C3)ncc2C1 (stereo not shown) [AC1030, 2-(4-(6-acetyl-5,6,7,8-tetra-hydropyrido[4,3-d]pyrimidin-2-yl)-1-methyl-10-oxo-1,4,9-triazaspiro[5.6]dodecan-9-yl)-acetic acid]
3.41	Cc1nc(N)nc(N2CCN(C)C3(CCC(=O)N(CC(=O)O)CC3)C2)c1Cl (stereo not shown) [AC1031, 2-(4-(2-amino-5-chloro-6-methylpyrimidin-4-yl)-1-methyl-10-oxo-1,4,9-triaza-spiro[5.6]dodecan-9-yl)acetic acid]
3.91	CN1CCN(c2nccc(C(=O)O)n2)CC12CCC(=O)N(CC(=O)O)CC2 (stereo not shown) [AC1035, 2-(9-(carboxymethyl)-1-meth-yl-10-oxo-1,4,9-triazaspiro-[5.6]dodecan-4-yl)pyrimidine-4-carboxylic acid]

Same assay, conditions: formula (IV) compounds; 0.12 nM GST-KLHDC2, 1.7 nM biotinylated 12 aa SelK peptide; triplicate; read-out: KLHDC2 binding activities IC50

pIC50	Compound
4.30	CC(C(=O)N1CCCC2(CCN(CC(=O)O)C(=O)CO2)C1)c1ccccc1 (stereo not shown) [AC890, 2-(9-oxo-2-(2-phenylpropano-yl)-7-oxa-2,10-diazaspiro[5.6]-dodecan-10-yl)acetic acid]
4.40	O=C(O)CN1CCC2(CCCN(C(=O)C3CCCC3)C2)OCC1=O (stereo not shown) [AC903, 2-(2-(cyclopentanecarbonyl)-9-oxo-7-oxa-2,10-diazaspiro-[5.6]dodecan-10-yl)acetic acid]
4.29	O=C(O)CN1CCC2(CCCN(C(=O)C3CCC3)C2)OCC1=O (stereo not shown) [AC904, 2-(2-(cyclobutanecarbonyl)-9-oxo-7-oxa-2,10-diazaspiro-[5.6]dodecan-10-yl)acetic acid]
4.32	O=C(O)CN1CCC2(CCCN(c3ccnc(N4CCC(O)C4)n3)C2)OCC1=O (stereo not shown) [AC935, 2-(2-(2-(3-hydroxypyrrolidin-1-yl)pyrimidin-4-yl)-9-oxo-7-oxa-2,10-diazaspiro[5.6]-dodecan-10-yl)acetic acid]
2.86	Cc1nccc(N2CCCC3(CCN(CC(=O)O)C(=O)CO3)C2)n1 (stereo not shown) [AC947, 2-(2-(2-methylpyrimidin-4-yl)-9-oxo-7-oxa-2,10-diazaspiro-[5.6]dodecan-10-yl)acetic acid]
4.66	C[C@H](C(=O)N1CCC[C@]2(CCN(CC(=O)O)C(=O)CO2)C1)c1ccccc1 [AC0978, 2-((S)-9-oxo-2-((S)-2-phenyl-propanoyl)-7-oxa-2,10-diaza-spiro[5.6]dodecan-10-yl)acetic acid]
4.20	C[C@H](C(=O)N1CCC[C@@]2(CCN(CC(=O)O)C(=O)CO2)C1)c1ccccc1 [AC0979, 2-((R)-9-oxo-2-((S)-2-phenyl-propanoyl)-7-oxa-2,10-diaza-spiro[5.6]dodecan-10-yl)acetic acid]
4.40	C[C@@H](C(=O)N1CCCC2(CCN(CC(=O)O)C(=O)CO2)C1)c1ccccc1 (stereo partly drawn) [AC1028, 2-(9-oxo-2-((R)-2-phenylpro-panoyl)-7-oxa-2,10-diaza-spiro[5.6]dodecan-10-yl)acetic acid]
